# Assay results: patent US20250188082A1, “Use of Hypoxanthine Compound In Preparation of Drug For Treating Pulmonary Fibrosis” (Sichuan Yiasuo Pharmaceutical Technology Co., Ltd., priority 2022, published 2025)
# Where two headings read alike, the source gives them in different places.
# Columns and labels:
# Assay type in all cases: in vivo, C57BL/6 mice
# [1] = tested on: coronavirus-induced pulmonary fibrosis model (HcoV-OC43); test: Coronavirus-induced pulmonary fibrosis model; details: 120 mg/kg/d intragastric, 14 days; for Ashcroft scores: coronavirus HcoV-OC43 + bleomycin, lung tissue HE; for IL-1β / IL-6 / NF-κB / TNF-α: serum, HcoV-OC43 + bleomycin, from two weeks after model
# From the text: Experimental method: an in-vivo coronavirus-induced pulmonary fibrosis model mice was established: C57BL/6 mice (with weights being 22-25 g) were randomly and evenly divided into a plurality of groups, including blank control group, model group, Nintedanib positive control group, hypoxanthine analogue A group, hypoxanthine analogue B group, hypoxanthine analogue C group, compound 1 group, compound 2 group . . . compound 12 group, with 9 mice in each group. On Day 1, the mice in the blank control group were instilled with normal saline nasally, and the mice in other groups were all infected with HcoV-OC43 coronavirus strains (30 μL) through nasal instillation. On Day 2, the mice received 5 mg/kg bleomycin through tracheas to induce their pulmonary fibrosis. After the model was established for two weeks, the mice in each group were intragastrically administrated for intervention for consecutive 14 days; the mice in blank control group and model group intragastrically received the same dosage of the normal saline as those in drug groups; the mice in Nintedanib positive control group received Nintedanib (120 mg/kg); the mice in hypoxanthine analogue A group, hypoxanthine analogue B group and hypoxanthine analogue C group respectively received hypoxanthine analogue A (120 mg/kg/d), hypoxanthine analogue B (120 mg/kg/d) and hypoxanthine analogue C (120 mg/kg/d); and the mice in compound 1 group, compound 2 group . . . compound 12 group respectively received compound 1 (120 mg/kg/d), compound 2 (120 mg/kg/d) . . . compound 12 (120 mg/kg/d) prepared in example 1. After administration for consecutive 14 days, the mice were observed every day, and their weights and death conditions were recorded. After administration, blood was taken from eyeballs for immediately detecting the expression levels of NF-κB, TNF-α, IL-1 and IL-6 in serum, and lung tissues were taken for HE detection and Ashcroft scoring.
# [2] = tested on: bleomycin-induced pulmonary fibrosis model; test: Comparison with comparative drugs: bleomycin-induced model, hydroxyproline and TGF-β; details: 120 mg/kg/d intragastric, twice every day, 14 days, from two weeks after model; Day 15
# [3] = tested on: bleomycin-induced pulmonary fibrosis model; test: Early pulmonary fibrosis: bleomycin-induced model, dosing from one week after modelling; details: for Leucocyte / Lymphocyte / Neutrophil / Ashcroft scores: early pulmonary fibrosis, 120 mg/kg/d intragastric, 14 days, from one week after model; for Leucocyte / Lymphocyte / Neutrophil: blood, Day 15, twice every day; for Ashcroft scores: lung tissue HE staining
# [4] = tested on: bleomycin-induced pulmonary fibrosis model; test: Advanced pulmonary fibrosis: bleomycin-induced model, dosing from three weeks after modelling; details: for Leucocyte / Lymphocyte / Neutrophil / Ashcroft scores: advanced pulmonary fibrosis, 120 mg/kg/d intragastric, 14 days, from three weeks after model; for Leucocyte / Lymphocyte / Neutrophil: blood, Day 15, twice every day; for Ashcroft scores: lung tissue HE staining
# [5] = tested on: influenza B virus-induced pulmonary fibrosis model (influenza B (H7N9) virus); details: 120 mg/kg/d intragastric, 14 days; for Ashcroft scores: influenza B virus + bleomycin, lung tissue HE; for IL-1β / NF-κB / TNF-α / IL-6: serum, from two weeks after model; for IL-1β / NF-κB / TNF-α: influenza B (H7N9) + bleomycin; for IL-6: influenza B + bleomycin
# [6] = tested on: Streptococcus pneumoniae-induced pulmonary fibrosis model; test: Streptococcus pneumoniae-induced pulmonary fibrosis model; details: for Leucocyte / Lymphocyte / Neutrophil / Ashcroft scores: Streptococcus pneumoniae + bleomycin, 120 mg/kg/d intragastric, 14 days; for Leucocyte / Lymphocyte / Neutrophil: blood, Day 15, 3 times every day, from one week after model; for Ashcroft scores: lung tissue HE staining
smiles,measurement,setting,value
CCC(=O)Oc1ncnc2c1ncn2C(C)C [Compound 12],Ashcroft scores,[1],1.37
same,IL-1β,[1],35.8 pg/mL
same,IL-6,[1],66.5 pg/mL
same,NF-κB,[1],27.7 pg/mL
same,TNF-α,[1],54.4 pg/mL
same,Hydroxyproline in bronchoalveolar lavage fluids,[2],0.76 ± 0.08 µg/mg
same,Hydroxyproline in lung tissues,[2],1.41 ± 0.12 µg/mg
same,TGF-β in bronchoalveolar lavage fluids,[2],4.06 ± 0.15 µg/L
same,TGF-β in lung tissues,[2],23.91 ± 2.38 µg/L
same,Leucocyte,[3],4.21 10^9/L
same,Lymphocyte,[3],5.24 10^9/L
same,Neutrophil,[3],1.18 10^9/L
same,Ashcroft scores,[3],1.14
same,Leucocyte,[4],4.04 10^9/L
same,Lymphocyte,[4],5.65 10^9/L
same,Neutrophil,[4],1.23 10^9/L
same,Ashcroft scores,[4],1.13
same,Ashcroft scores,[5],1.26
same,IL-1β,[5],27.8 pg/mL
same,NF-κB,[5],32.9 pg/mL
same,TNF-α,[5],75.4 pg/mL
same,IL-6,[5],69.7 pg/mL
same,Leucocyte,[6],7.04 10^9/L
same,Lymphocyte,[6],7.23 10^9/L
same,Neutrophil,[6],1.97 10^9/L
same,Ashcroft scores,[6],1.39
CCCOc1ncnc2c1ncn2C(C)C [Compound 9],Ashcroft scores,[1],1.31
same,IL-1β,[1],35.9 pg/mL
same,IL-6,[1],64.3 pg/mL
same,NF-κB,[1],24.4 pg/mL
same,TNF-α,[1],55.1 pg/mL
same,Hydroxyproline in bronchoalveolar lavage fluids,[2],0.73 ± 0.09 µg/mg
same,Hydroxyproline in lung tissues,[2],1.41 ± 0.09 µg/mg
same,TGF-β in bronchoalveolar lavage fluids,[2],4.05 ± 0.14 µg/L
same,TGF-β in lung tissues,[2],25.65 ± 2.16 µg/L
same,Leucocyte,[3],4.14 10^9/L
same,Lymphocyte,[3],5.23 10^9/L
same,Neutrophil,[3],1.33 10^9/L
same,Ashcroft scores,[3],1.12
same,Leucocyte,[4],4.69 10^9/L
same,Lymphocyte,[4],5.69 10^9/L
same,Neutrophil,[4],1.46 10^9/L
same,Ashcroft scores,[4],1.11
same,Ashcroft scores,[5],1.23
same,IL-1β,[5],26.9 pg/mL
same,NF-κB,[5],30.8 pg/mL
same,TNF-α,[5],73.8 pg/mL
same,IL-6,[5],66.1 pg/mL
same,Leucocyte,[6],6.73 10^9/L
same,Lymphocyte,[6],7.11 10^9/L
same,Neutrophil,[6],1.89 10^9/L
same,Ashcroft scores,[6],1.33
CCOc1ncnc2c1ncn2C(C)C [Compound 8],Ashcroft scores,[1],1.29
same,IL-1β,[1],36.6 pg/mL
same,IL-6,[1],66.7 pg/mL
same,NF-κB,[1],28.3 pg/mL
same,TNF-α,[1],56.1 pg/mL
same,Hydroxyproline in bronchoalveolar lavage fluids,[2],0.72 ± 0.06 µg/mg
same,Hydroxyproline in lung tissues,[2],1.47 ± 0.10 µg/mg
same,TGF-β in bronchoalveolar lavage fluids,[2],4.06 ± 0.18 µg/L
same,TGF-β in lung tissues,[2],25.17 ± 2.35 µg/L
same,Leucocyte,[3],4.27 10^9/L
same,Lymphocyte,[3],5.31 10^9/L
same,Neutrophil,[3],1.26 10^9/L
same,Ashcroft scores,[3],1.09
same,Leucocyte,[4],4.59 10^9/L
same,Lymphocyte,[4],5.73 10^9/L
same,Neutrophil,[4],1.42 10^9/L
same,Ashcroft scores,[4],1.21
same,Ashcroft scores,[5],1.16
same,IL-1β,[5],27.1 pg/mL
same,NF-κB,[5],31.9 pg/mL
same,TNF-α,[5],73.5 pg/mL
same,IL-6,[5],66.5 pg/mL
same,Leucocyte,[6],6.68 10^9/L
same,Lymphocyte,[6],8.09 10^9/L
same,Neutrophil,[6],1.94 10^9/L
same,Ashcroft scores,[6],1.31
CC(C)Oc1ncnc2c1N(C(C)C)CN2C(C)C [Compound 10],Ashcroft scores,[1],1.41
same,IL-1β,[1],37.7 pg/mL
same,IL-6,[1],68.2 pg/mL
same,NF-κB,[1],25.3 pg/mL
same,TNF-α,[1],56.2 pg/mL
same,Hydroxyproline in bronchoalveolar lavage fluids,[2],0.74 ± 0.06 µg/mg
same,Hydroxyproline in lung tissues,[2],1.37 ± 0.08 µg/mg
same,TGF-β in bronchoalveolar lavage fluids,[2],4.21 ± 0.18 µg/L
same,TGF-β in lung tissues,[2],24.12 ± 2.25 µg/L
same,Leucocyte,[3],4.17 10^9/L
same,Lymphocyte,[3],5.27 10^9/L
same,Neutrophil,[3],1.21 10^9/L
same,Ashcroft scores,[3],1.17
same,Leucocyte,[4],4.26 10^9/L
same,Lymphocyte,[4],5.71 10^9/L
same,Neutrophil,[4],1.38 10^9/L
same,Ashcroft scores,[4],1.16
same,Ashcroft scores,[5],1.25
same,IL-1β,[5],27.8 pg/mL
same,NF-κB,[5],31.2 pg/mL
same,TNF-α,[5],74.7 pg/mL
same,IL-6,[5],65.5 pg/mL
same,Leucocyte,[6],7.01 10^9/L
same,Lymphocyte,[6],7.33 10^9/L
same,Neutrophil,[6],1.99 10^9/L
same,Ashcroft scores,[6],1.38
CC(C)n1cnc2c(=O)[nH]cnc21 [Compound 2],Ashcroft scores,[1],1.16
same,IL-1β,[1],32.0 pg/mL
same,IL-6,[1],62.6 pg/mL
same,NF-κB,[1],24.6 pg/mL
same,TNF-α,[1],51.2 pg/mL
same,Hydroxyproline in bronchoalveolar lavage fluids,[2],0.74 ± 0.05 µg/mg
same,Hydroxyproline in lung tissues,[2],1.51 ± 0.08 µg/mg
same,TGF-β in bronchoalveolar lavage fluids,[2],4.02 ± 0.15 µg/L
same,TGF-β in lung tissues,[2],24.10 ± 2.14 µg/L
same,Leucocyte,[3],4.11 10^9/L
same,Lymphocyte,[3],5.19 10^9/L
same,Neutrophil,[3],1.04 10^9/L
same,Ashcroft scores,[3],1.01
same,Leucocyte,[4],4.16 10^9/L
same,Lymphocyte,[4],5.29 10^9/L
same,Neutrophil,[4],1.26 10^9/L
same,Ashcroft scores,[4],0.88
same,Ashcroft scores,[5],1.09
same,IL-1β,[5],26.6 pg/mL
same,NF-κB,[5],29.5 pg/mL
same,TNF-α,[5],72.6 pg/mL
same,IL-6,[5],65.4 pg/mL
same,Leucocyte,[6],5.48 10^9/L
same,Lymphocyte,[6],5.95 10^9/L
same,Neutrophil,[6],1.83 10^9/L
same,Ashcroft scores,[6],1.09
"COc1ncnc2c1ncn2C(C)C [Hypoxanthine analogue C, reference compound]",Ashcroft scores,[1]; 120 mg/kg/day,6.31
same,IL-1β,[1]; 120 mg/kg/day,530.1 pg/mL
same,IL-6,[1]; 120 mg/kg/day,530.9 pg/mL
same,NF-κB,[1]; 120 mg/kg/day,729.6 pg/mL
same,TNF-α,[1]; 120 mg/kg/day,449.1 pg/mL
same,Hydroxyproline in bronchoalveolar lavage fluids,[2],1.12 ± 0.15 µg/mg
same,Hydroxyproline in lung tissues,[2],2.85 ± 0.25 µg/mg
same,TGF-β in bronchoalveolar lavage fluids,[2],7.42 ± 1.4 µg/L
same,TGF-β in lung tissues,[2],63.83 ± 7.52 µg/L
same,Leucocyte,[3]; 120 mg/kg/day,50.11 10^9/L
same,Lymphocyte,[3]; 120 mg/kg/day,50.06 10^9/L
same,Neutrophil,[3]; 120 mg/kg/day,37.04 10^9/L
same,Ashcroft scores,[3]; 120 mg/kg/day,5.46
same,"inhibition (anti-inflammatory) effect on leucocytes, neutrophils and lymphocytes in blood","[3]; mice with early pulmonary fibrosis, result in words",obviously inferior
same,Leucocyte,[4]; 120 mg/kg/day,72.55 10^9/L
same,Lymphocyte,[4]; 120 mg/kg/day,70.88 10^9/L
same,Neutrophil,[4]; 120 mg/kg/day,59.66 10^9/L
same,Ashcroft scores,[4]; 120 mg/kg/day,6.06
same,"inhibition (anti-inflammatory) effect on leucocytes, neutrophils and lymphocytes in blood","[4]; mice with advanced pulmonary fibrosis, result in words",obviously inferior
same,Ashcroft scores,[5]; 120 mg/kg/day,6.15
same,IL-1β,[5]; 120 mg/kg/day,241.9 pg/mL
same,NF-κB,[5]; 120 mg/kg/day,632.4 pg/mL
same,TNF-α,[5]; 120 mg/kg/day,198.9 pg/mL
same,IL-6,[5]; 120 mg/kg/day,194.9 pg/mL
same,Leucocyte,[6]; 120 mg/kg/day,149.35 10^9/L
same,Lymphocyte,[6]; 120 mg/kg/day,90.12 10^9/L
same,Neutrophil,[6]; 120 mg/kg/day,82.11 10^9/L
same,Ashcroft scores,[6]; 120 mg/kg/day,6.21
same,"inhibition (anti-inflammatory) effect on leucocytes, neutrophils and lymphocytes in blood","[6]; mice with Streptococcus pneumoniae-induced pulmonary fibrosis, result in words",obviously inferior
